Assays:
hESC-derived hepatocytes [1] = system: hESC-derived hepatocytes
Description: Following the basic protocol A, differentiating hES cell derived hepatic progenitors and hepatocyte-like cells cultured on a Gelatin-based coating were treated with 1 μM 9-cis retinoic acid for 5, 24 or 48 hr exposures on days 21, 22 or 23 of the protocol (i.e. on day 7, 8 or 9 of the differentiation and maturation phase; FIG. 2 A, B, D), repeated 5 hr exposures on days 11, 16, 23, 25 and 30 of the protocol (i.e. on day 4 of the pre-hepatic phase and days 2, 9, 11 and 16 of the differentiation and maturation phase; FIG. 2 C), or long term/continuous treatment from day 14 and onwards (i.e.starting on day 1 of the differentiation and maturation phase; FIG. 2D).
Immediately after end of the RA treatment, the cell cultures are subjected to a CYP activity assay according to the following protocol: Cells are washed twice with warm Williams medium E w/o phenol red (+0.1% PEST). Then CYP activity assay, consisting of warm Williams medium E w/o phenol red (+0.1% PEST), 2 mM L-Glutamine, 25 mM HEPES, 26 μM Phenacetin (model substrate for CYP1A), 9 μM Diclofenac (model substrate for CYP2C9) and 3 μM Midazolam (model substrate for CYP3A), is added to the cells (e.g. 220 μl/24 well) and incubated for 16 hr at 37° C. Then supernatant is collected and centrifuged for 20 min at 10.000 rcf at 4° C. Subsequently, 120 μl of the supernatant is transferred into a 96 well plate which is sealed with a tight seal tape and stored at −20 or −80° C. until LC/MS-analysis of metabolite formation: Acetaminophen (Paracetamol) for CYP1A, OH-Diclofenac for CYP2C9 and OH-Midazolam for CYP3A.

RXR = details: cited from earlier work; for affinity of binding to RXR: compared with 9-cis-retinoic acid (Heyman et al.)
[2] = system: hES cell derived hepatocyte-like cells; assay: qRT-PCR gene expression after RA treatment, basic protocol A (Example 5)
Description: Following the basic protocol A, hES cell derived hepatocyte-like cells cultured on a Gelatin-based coating were treated with 1 μM 9-cis retinoic acid for 5 hr on day 21 of the protocol (i.e. on day 7 of the differentiation and maturation phase) or 24 hr on day 22-23 of the protocol (i.e. on day 8-9 of the differentiation and maturation phase).
Cells were harvested on day 21 or 23 of the protocol (i.e. on day 7 or 9 of the differentiation and maturation phase) and gene expression was analysed using qRT-PCR, normalised to the house-keeping gene CREBBP and the results presented as relative quantification normalised to a calibrator (FIG. 3.)

[3] = system: hepatocyte-like cells derived from hES cells; assay: HNF4α TaqMan assays: HNF4α isoform expression after 9 cis-retinoic acid (Example 3); assay type: cell-based, human; details: for expression of the adult HNF4a1-3 isoforms / expression of the fetal HNF4a4-9 isoforms: 1 or 2 μM
Source text: Three different HNF4α-TaqMan assays were used for analysis of HNF4α expression: one assay detecting all 9 HNF4α isoforms, one assay detecting isoforms 1-3 (including the adult isoforms 1 and 2) and one assay detecting isoforms 4-9 (including the fetal isoforms 7 and 8). Isoforms 3, 4, 5, 6 and 9 are not expressed at all in vivo or at very low levels and can therefore be neglected.

hESC-derived hepatocytes [4] = assay: CYP activity assay, early 5-aza-2-deoxycytidine plus late RA, Kenpaullone and matrix overlay (Example 8); assay type: cell-based, human; details: additional effect of treatment with the DNA demethylation agent on day 2-3
Description: (§1) Following the basic protocols C (hESC-derived hepatocytes) or D (hiPSC-derived hepatocytes), differentiating hES and hiPS cells in the pre-endodermal phase were treated with 10 nM of the DNA demethylating agent 5-aza-2-deoxycytidine for 24 hr on day 2 to 3 of the protocol.
(§2) Later in the protocol, hPS cell derived hepatic progenitor cells and hepatocyte-like cells cultured on a Fibronectin-based coating were treated with continuous/long term treatment with 0.2 μM 9cis-RA and 0.5 μM Kenpaullone starting on day 14 of the protocol (i.e. on day 1 of the differentiation and maturation phase) and received thin Fibronectin-Collagen I-overlays on day 14 and 16 of the protocol (i.e. on day 1 and 3 of the differentiation and maturation phase) and is refreshed thereafter once a week on day 23, 30, 37 and so on (i.e. on day 9, 16, 23 and so on of the differentiation and maturation phase).
(§3) For analysing functional expression of CYP enzymes on day 36 (i.e. on day 22 of the maturation step; FIG. 10), the cell cultures are subjected to a CYP activity assay according to the following protocol: Cells are washed twice with warm Williams medium E w/o phenol red (+0.1% PEST). […]

[5] = system: hiPSC-derived hepatocytes; assay: as above; assay type: cell-based, human; details: additional effect of treatment with the DNA demethylation agent on day 2-3
Description: as §1, §2, §3

[6] = system: DE derived from hPSC lines P11032, SA181 and P11012; assay: qRT-PCR of stem cell and DE markers in DE, 5-aza-2-deoxycytidine or 5-azacytidine (Example 12); assay type: cell-based, human; details: 10 nM 5-aza-2-deoxycytidine or 1 μM 5-azacytidine on day 2-3; day 7
Description: Following the basic protocols C (P11032, SA181) or D (P11012), cells derived from 3 different hPSC lines were treated with either 10 nM 5-aza-2-deoxycytidine or 1 μM 5-azacytidine on day 2-3 during the pre-endodermal phase.

RAR = details: Allenby et al.; Idres et al.; cited from earlier work
[7] = system: hiPSC-derived hepatocytes; assay: CYP activity assay, 9cis-RA or other RXR- and RAR-agonists (Example 15); assay type: cell-based, human; details: instead of 0.2 μM 9cis-RA: 0.5 μM ATRA, 5 μM AM580, 0.2 μM 13cis-RA, 5 μM LGD1069, 5 μM LG100268 or 5 μM SR11237; with Kenpaullone, overlay, early 5-aza-2-deoxycytidine; day 36
Description: Some experimental groups were treated with 0.5 μM all trans-retinoic acid (ATRA), 5 μM AM580, 0.2 μM 13cis-RA, 5 μM LGD1069, 5 μM LG100268 or 5 μM SR11237 instead of 0.2 μM 9cis-RA.

[8] = continuous/long-term RA treatment versus 5 and 24 hr RA exposures
[9] = 24-, 48 hr-exposure and continuous RA-treatment
[10] = 5 hr RA-exposure, day 23, analysed immediately after the exposure

9-cis-retinoic acid [RA]
CYP1A activity (hESC-derived hepatocytes [1]): strongest increase
CYP1A, 2C9 and 3A activities (hESC-derived hepatocytes [1]): increased
CYP1A, CYP2C9 and 3A activities (hESC-derived hepatocytes [1]): increase
CYP1A-, 2C9- and 3A-activity (hESC-derived hepatocytes [1]): significant increase
CYP1A-activity (hESC-derived hepatocytes [1]): increase
CYP3A activity (hESC-derived hepatocytes [1]): strongest increase
effect on CYP1A and 2C9 activity (hESC-derived hepatocytes [1]): stronger increasing effect
binding to and activation of RXR and RAR (RXR; Allenby et al., Idres et al.): binds to and activates both RXR and RAR
mRNA expression of the adult hepatic gene CYP3A4 ([2]; 5 hr RA-exposure (1 μM) on day 21, immediately after and 2 and 7 days later (day 23 and 30)): increase
decrease of expression of the fetal hepatic gene CYP3A7 ([2]; 5 hr exposure on day 21, 2 days later on day 23): strongly
decrease of expression of the fetal hepatic gene CYP3A7 ([2]; 5 hr exposure on day 21, immediately after the exposure on day 21): slightly
increase of mRNA expression of the adult hepatic gene PXR ([2]; 5 hr exposure on day 21, measured on day 21): not immediately after the 5 hr exposure
mRNA expression of the adult hepatic gene PXR ([2]; 5 hr exposure on day 21, measured on day 23): increases
mRNA expression of the adult hepatic gene PXR ([2]; 24 hr RA-exposure on day 22-23): increases
adult CYP3A4 expression ([2]; 24 hr RA-exposure on day 22-23, day 23): immediate up-regulation
expression of the fetal hepatic gene CYP3A7 ([2]; 24 hr RA-exposure on day 22-23, immediately after the exposure on day 23): strongly decreases
fetal hepatic gene α-Fetoprotein (AFP) expression [2, 8]: stronger down-regulation
mRNA expression of the adult hepatic gene CAR [2, 8]: higher increase
expression of the adult HNF4a1-3 isoforms [3, 9]: slightly increase
expression of the fetal HNF4a4-9 isoforms [3, 9]: slightly decrease
expression of the adult HNF4a1-3 isoforms [3, 10]: strongly increase
expression of the fetal HNF4a4-9 isoforms [3, 10]: increase
expression of fetal HNF4α isoform (4-9) ([3]; 5 hr exposure with 1 μM RA, 7 days later): raised over control values
expression of HNF4α isoforms 1-3 ([3]; 5 hr exposure with 1 μM RA, 7 days later, vs untreated control cells): slightly lower
expression of HNF4α isoforms 1-3 ([3]; 5 hr exposure with 1 μM RA, immediately after the exposure): increases
expression of HNF4α isoforms 4-9 ([3]; 5 hr exposure with 1 μM RA, immediately after the exposure, vs control): slightly lower
ratio of HNF4a 1-3 isoforms/4-9 isoforms ([3]; 5 hr exposures): do not increase
ratio of HNF4a 1-3 isoforms/4-9 isoforms ([3]; 24 hr and 48 hr RA-exposure and long term/continuous treatment): increase the 1-3/4-9 ratio of hESC-derived hepatocytes to levels similar as in hp hep

Nc1ncn([C@H]2C[C@H](O)[C@@H](CO)O2)c(=O)n1 [5-aza-2-deoxycytidine]
CYP2C9 activity (hESC-derived hepatocytes [4]): No additional increase
CYP2C9 activity [5]: No additional increase

Nc1ncn([C@@H]2O[C@H](CO)[C@@H](O)[C@H]2O)c(=O)n1 [5-azacytidine]
Oct4 and Nanog mRNA [6]: significantly decreased
mRNA expression of the DE markers Sox17 and Cxcr4 [6]: No significant changes

CC1=C(\C=C/C(C)=C/C=C/C(C)=C/C(=O)O)C(C)(C)CCC1 [7-cis retinoic acid]
binding to RAR and RXR (RAR): specifically bind RAR, but not to RXR

CC1=C(/C=C/C(C)=C/C=C\C(C)=C\C(=O)O)C(C)(C)CCC1 [11-cis-retinoic acid]
binding to RAR and RXR (RAR): specifically bind RAR, but not to RXR
affinity of binding to RXR (RXR): much lower affinity

CC1=C(/C=C/C(C)=C/C=C/C(C)=C\C(=O)O)C(C)(C)CCC1 [13cis RA, 13-cis-retinoic acid]
binding to RAR and RXR (RAR): specifically bind RAR, but not to RXR
affinity of binding to RXR (RXR): much lower affinity

CC1=C(/C=C/C(C)=C/C=C/C(C)=C/C(=O)O)C(C)(C)CCC1 [ATRA, all trans-retinoic acid]
CYP2C9 activity [7]: slightly smaller increase
binding to RAR and RXR (RAR): specifically bind RAR, but not to RXR
affinity of binding to RXR (RXR): much lower affinity

C=C(c1ccc(C(=O)O)cc1)c1cc2c(cc1C)C(C)(C)CCC2(C)C [LGD1069]
CYP2C9 activity [7]: slightly smaller increase

From patent publication US10294457B2, “Maturation of hepatocyte-like cells derived from human pluripotent stem cells” (Takara Bio Europe AB, priority 2012, dated 2019)
